Patent US10418127B2, “Method of formulating a skin-lightening composition” (The Procter & Gamble Company, priority 2012, dated 2019)

Tests used:
[1] = test system: Chinese females, 25-55 years old with hyperpigmented spots; assay: 9-week split-face, vehicle-controlled clinical skin tone benefit study; type: in vivo, human; settings: 0.05% in SC-99 vehicle, vs vehicle
Excerpt: This Example provides evidence of the advantages of using composite signatures and illustrates clinical affirmation of the C-map model for predicting efficacy of skin-lightening agents. This Example supports embodiments related to composite signatures (as described at the end of Example 3). An illustrative “Skin Tone” Signature developed from a genomics study using a composite skin-lightening benchmark agent signature is derived from Niacinamide, Hexamidine, Sepiwhite, and NAG. The signature is used to query C-map and generate a list of potential skin-lightening agents. A top hit, Chlorhexidine Diactate (CD) is entered into clinical testing for confirmation of efficacy. The control for clinical efficacy is a 5% Niacinamide +1% Sepiwhite formulation in the control vehicle.
Primary endpoints are changes in color spot area fraction (image analysis) and melanin spot area fraction (NC2) from baseline. Secondary endpoints are changes from baseline in L*a*b (color image analysis), mean melanin gray scale (NC2), and melanin evenness (NC2). Texture area fraction and pore area fraction are also evaluated to explore impact on other aspects relating to overall skin tone. […] Statistically significant superiority to the high efficacy benchmark skin active agent to vehicle performance is the clinical success criteria.
Study Design: The experimental protocol included a 9-week (1-week preconditioning & 8-week treatment), randomized, double-blind, round robin, vehicle-controlled, split-face tone benefit study. The subject population included 330 Chinese females, 25-55 years old with hyperpigmented spots. 318 subjects completed the entire study. […] Olay Complete SPF 15 UV Moisturizing Lotion is concomitantly used during pre-conditioning and treatment. 0.5 g each test product per half-face (forehead to jaw line; ˜4 mg/cm^2) is dosed 2× a day (morning/evening). Color SAF and treatment area, Melanin SAF, gray scale, evenness by NC2, and additional measurement of Fine Lines and Wrinkle and Texture are by REAL 3.01A. Data collection points include baseline, and ends of weeks 4, 6 and 8. The tested hypothesis is that there is no difference in clinical endpoint versus the benchmark composition treatment. Study site is Kuntai Clinical Center, Beijing, China and study time frame is February 2010 (pre-conditioning) to April 2010.

[2] = test system: tert-Keratinocyte (tKC) cell line; assay: C-map query with the composite skin tone benchmark signature; type: cell-based, human; settings: composite signature of Niacinamide, Hexamidine, Sepiwhite and NAG
Experimental: Individual experiments (referred to as batches) generally comprise 30 to 96 samples analyzed using Affymetrix GeneChip® technology platforms, containing 6 replicates of the vehicle control (e.g., DSMO), 2 replicate samples of a positive control that gives a strong reproducible effect in the cell type used, and samples of the test material/perturbagen. Replication of the test material is done in separate batches due to batch effects. In vitro testing was performed in 6-well plates to provide sufficient RNA for GeneChip® analysis (2-4 μg total RNA yield/well).
Human telomerized keratinocytes (tKC) were obtained from the University of Texas, Southwestern Medical Center, Dallas, Tex. tKC cells were grown in EpiLife® media with 1× Human Keratinocyte Growth Supplement (Invitrogen, Carlsbad, Calif.) on collagen I coated cell culture flasks and plates (Becton Dickinson, Franklin Lakes, N.J.). Keratinocytes were seeded into 6-well plates at 20,000 cells/cm^2 24 hours before chemical exposure. Human skin fibroblasts (BJ cell line from ATCC, Manassas, Va.) were grown in Eagle's Minimal Essential Medium (ATCC) supplemented with 10% fetal bovine serum (HyClone, Logan, Utah) in normal cell culture flasks and plates (Corning, Lowell, Mass.). BJ fibroblasts were seeded into 6-well plates at 12,000 cells/cm^2 24 hours before chemical exposure. […]

tyrosinase = molecular target: T1, tyrosinase (Homo sapiens, UniProt P14679); settings: in vitro; cited from earlier work
T1 sequence (P14679 19-529): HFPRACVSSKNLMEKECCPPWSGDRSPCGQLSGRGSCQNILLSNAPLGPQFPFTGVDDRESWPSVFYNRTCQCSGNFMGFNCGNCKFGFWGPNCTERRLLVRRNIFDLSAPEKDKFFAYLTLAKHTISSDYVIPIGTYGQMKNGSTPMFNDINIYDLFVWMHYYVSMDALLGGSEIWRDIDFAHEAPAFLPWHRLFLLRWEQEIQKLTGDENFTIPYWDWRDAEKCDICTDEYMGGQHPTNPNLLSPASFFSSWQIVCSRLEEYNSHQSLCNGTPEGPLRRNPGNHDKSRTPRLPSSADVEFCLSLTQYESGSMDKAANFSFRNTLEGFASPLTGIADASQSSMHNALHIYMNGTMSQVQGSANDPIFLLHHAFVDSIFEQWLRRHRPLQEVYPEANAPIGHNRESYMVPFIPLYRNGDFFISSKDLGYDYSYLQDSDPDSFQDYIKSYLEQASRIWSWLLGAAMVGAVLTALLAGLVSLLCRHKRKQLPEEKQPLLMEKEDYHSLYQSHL

melanocyte = settings: in vitro; cited from earlier work
[3] = test system: ultraviolet-induced skin pigmentation; settings: Shimizu K. et al., Planta Med 2002; cited from earlier work
[4] = test system: melanosome transfer from melanocytes to keratinocytes; settings: in vitro; cited from earlier work

Structure (SMILES): CC(=O)O.CC(=O)O.NC(=N\CCCCCC/N=C(N)/N=C(\N)Nc1ccc(Cl)cc1)/N=C(\N)Nc1ccc(Cl)cc1 [CD, Chlorhexidine Diacetate]
- spot area fraction color test ([1]; 2x a day, week 8): significantly fewer spots when compared to vehicle
- Basal skin tone ([1]; week 8): demonstrated superiority
- Pore area fraction ([1]; week 8): superior efficacy
- Texture area fraction ([1]; week 8): superior efficacy
- NC2 Melanin evenness test ([1]; weeks 6 and 8): superiority to the vehicle
- spot area fraction NC2 test ([1]; weeks 6 and 8): significantly reduced fraction when compared to the vehicle
- connectivity to the tone composite benchmark signature query [2]: top connectivity hit

Structure (SMILES): N[C@H]1C(O)O[C@H](CO)[C@@H](O)[C@@H]1O (some centres unmarked) [glucosamine]
- production of melanin (tyrosinase): reduces production of melanin by inhibiting activation of tyrosinase

Structure (SMILES): C=CCCCCCCCCC(=O)N[C@@H](Cc1ccccc1)C(=O)O [N-undecylenoyl-L-phenylalanine]
- binding of alpha-MSH to the melanocyte (melanocyte): inhibit biding of alpha-MSH to the melanocyte

Structure (SMILES): COc1cc2oc(-c3ccc(O)cc3O)c(CC=C(C)C)c(=O)c2c(O)c1/C=C/C(C)C [artocarpin]
- skin-lightening efficacy [3]: some efficacy for skin-lightening

Structure (SMILES): NC(=O)c1cccnc1 [niacinamide]
- melanosome transfer [4]: inhibits melanosome transfer from melanocytes to keratinocytes
